In brackets after ≈: the same amount, converted by molar mass. Where two headings read alike, the source gives them in different places.
Assays:
S. pyogenes ATCC 12384 = test: In-vitro antibacterial activity, agar dilution technique; format: cell-based; details: Streptococcus pyogenes
Excerpt: (§1) In-Vitro Antibacterial Activity (γ/ml)
(§2) Against Gram-positive And Gram-negative bacteria
(§3) As Determined By The Agar Dilution Technique

[1] = test system: E. coli 026:B6 cef R (IV); test: as above; format: cell-based; details: Escherichia coli
Excerpt: as §1, §2, §3

[2] = test system: Pseudomonas aeruginosa 2598; test: as above; format: cell-based
Excerpt: as §1, §2, §3

S. Epidermidis = test: as above; format: cell-based; details: Staphylococcus epidermidis
Excerpt: as §1, §2, §3

S. Aureus 209 P = test: as above; format: cell-based; details: Staphylococcus aureus
Excerpt: as §1, §2, §3

[3] = test system: Proteus morganii ATCC 25830; test: as above; format: cell-based; details: Morganella morganii, ATCC25830
Excerpt: as §1, §2, §3

[4] = test system: Streptococcus faecalis (4 Strains); test: as above; format: cell-based; details: Enterococcus faecalis
Excerpt: as §1, §2, §3

K. aerogenes 1082 E = test: as above; format: cell-based; details: Klebsiella aerogenes
Excerpt: as §1, §2, §3

[5] = test system: Serratia marcescens ATCC 2902; test: as above; format: cell-based
Excerpt: as §1, §2, §3

[6] = test system: Staphylococcus aureus Smith; test: as above; format: cell-based
Excerpt: as §1, §2, §3

[7] = test system: Klebsiella aerogenes 1522 E; test: as above; format: cell-based
Excerpt: as §1, §2, §3

[8] = test system: Citrobacter Freundii ATCC 8090; test: as above; format: cell-based; details: ATCC8090
Excerpt: as §1, §2, §3

P. rettgeri ATCC 9250 = test: as above; format: cell-based; details: Providencia rettgeri, ATCC9250
Excerpt: as §1, §2, §3

Escherichia coli 026:B6 = test: as above; format: cell-based
Excerpt: as §1, §2, §3

[9] = Plasma half-life after a single intravenous dose in the mouse; format: in vivo; details: 10 mg/kg, single intravenous dose 10 mg/kg, two compartments open model
Protocol: | ^(1) Determined after a single intravenous dose (10 mg/kg) in the | mouse; the plasma concentration vs. time data were best described | according to a two compartments open model with the tabulated

Escherichia coli G = test: Experimental infections in mice (intraperitoneal); format: in vivo; details: 6 h, E. coli G, intraperitoneal infection in mice, 3 × LD50 challenge, treatments at 30, 90, 360 minutes, read-out: ED50 (cumulative dose)
Protocol: (§4) ^(2) Intraperitoneal infection in mice with a 3 × LD50
(§5) challenge; treatments at 30 minutes after infection for S. aureus and 30,
(§6) 90, 360 minutes for E. coli and K. pneumoniae.

[10] = test system: Klebsiella pneumoniae FI 5724; test: Experimental infections in mice (intraperitoneal); format: in vivo; details: FI5724, 6 h, K. pneumoniae FI 5724, intraperitoneal infection in mice, 3 × LD50 challenge, treatments at 30, 90, 360 minutes, read-out: ED50 (cumulative dose)
Protocol: as §4, §5, §6

[11] = test system: Staphylococcus aureus Smith; test: Experimental infections in mice (intraperitoneal); format: in vivo; details: 0.5 h, S. aureus Smith, intraperitoneal infection in mice, 3 × LD50 challenge, treatment at 30 minutes after infection, read-out: ED50 (cumulative dose)
Protocol: as §4, §5, §6

[12] = ATCC12384, S. pyogenes ATCC 12384, agar dilution technique, read-out: In-Vitro Antibacterial Activity

Row | SMILES | MIC (S. pyogenes ATCC 12384; [12]) [µg/mL] | MIC [1] [µg/mL] | MIC [2] [µg/mL] | MIC (S. Epidermidis) [µg/mL] | MIC (S. Aureus 209 P) [µg/mL] | MIC [3] [µg/mL] | MIC [4] [µg/mL] | MIC (K. aerogenes 1082 E) [µg/mL] | MIC [6] [µg/mL] | MIC [7] [µg/mL] | MIC [8] [µg/mL] | MIC (P. rettgeri ATCC 9250) [µg/mL] | MIC (Escherichia coli 026:B6) [µg/mL] | further results
1 | CC(=O)OCC1=C(C(=O)O)N2C(=O)C(C(C)O)C2S1 (stereo not drawn) [FCE 21420] | 0.046 (≈ 0.16 µM) | 3.12 (≈ 10.9 µM) | 100 (≈ 348 µM) | 0.76 (≈ 2.65 µM) | 0.046 (≈ 0.16 µM) | 1.52 (≈ 5.29 µM) | 0.1 (≈ 0.348 µM) | 0.76 (≈ 2.65 µM) | 0.046 (≈ 0.16 µM) | 1.55 (≈ 5.4 µM) | 1.52 (≈ 5.29 µM) | 1.52 (≈ 5.29 µM) | 0.76 (≈ 2.65 µM) | MIC ([5]; Serratia marcescens, ATCC2902, read-out: In-Vitro Antibacterial Activity): 3.12 µg/mL (≈ 10.9 µM)
2 | C[C@@H](O)[C@H]1C(=O)N2C(C(=O)[O-])=C(c3ccc(C[n+]4ccccc4)cc3)S[C@H]12 [Compound 5, (5R,6S)-6-[(1R)-hydroxyethyl]-2-[4-(pyridiniomethyl)phenyl]penem-3-carboxylate] | 0.011 (≈ 0.0288 µM) | 0.38 (≈ 0.994 µM) | 25 (≈ 65.4 µM) | 0.19 (≈ 0.497 µM) | 0.005 (≈ 0.0131 µM) | 0.38 (≈ 0.994 µM) | 0.06 (≈ 0.157 µM) | 0.38 (≈ 0.994 µM) | 0.011 (≈ 0.0288 µM) | 0.38 (≈ 0.994 µM) | 0.19 (≈ 0.497 µM) | 0.38 (≈ 0.994 µM) | 0.19 (≈ 0.497 µM) | half-life ([9]; read-out: Plasma half-life t1/2 α): 5 min; half-life ([9]; read-out: Plasma half-life t1/2 β): 15 min; ED50 (Escherichia coli G): 0.5 mg/kg; ED50 [10]: 0.8 mg/kg; ED50 [11]: 0.06 mg/kg; MIC ([5]; ATCC2902, Serratia marcescens ATCC 2902, agar dilution technique, read-out: In-Vitro Antibacterial Activity): 0.76 µg/mL (≈ 1.99 µM)
3 | CO/N=C(\C(=O)N[C@@H]1C(=O)N2C(C(=O)O)=C(COC(C)=O)CS[C@H]12)c1csc(N)n1 [Cefotaxime] |  | 1.25 (≈ 2.74 µM) | 25 (≈ 54.9 µM) | 6.25 (≈ 13.7 µM) | 1.56 (≈ 3.43 µM) | 0.037 (≈ 0.0812 µM) | 10 (≈ 22 µM) | 6.25 (≈ 13.7 µM) | 0.77 (≈ 1.69 µM) | 0.095 (≈ 0.209 µM) |  | 0.018 (≈ 0.0395 µM) | 0.38 (≈ 0.834 µM) | MIC (S. pyogenes ATCC 12384; ATCC12384, read-out: In-Vitro Antibacterial Activity): 1.25 µg/mL (≈ 2.74 µM)

Reference: patent US4863914A, “Penem derivatives” (Farmitalia Carlo Erba, priority 1985, dated 1989)
